Source: the NIST ThermoML archive (doi:10.1016/j.jct.2012.04.007)
Numbers after ± are expanded uncertainties.

Experiments:
[1] = 101.33 kPa, Liquid, Vibrating tube method
[2] = xn = mol fraction of the nth substance listed; settings: 101 kPa, Liquid, Vibrating tube method

CC(=O)N(C)C [N,N-dimethylethanamide]
[1]
Settings	mass density [kg/m3]
278.15 K	954.78 ± 0.071
288.15 K	945.591 ± 0.073
298.15 K	936.382 ± 0.075
308.15 K	927.142 ± 0.078
318.15 K	917.863 ± 0.08

CC(=O)N(C)C [N,N-dimethylethanamide] + O
mass density [kg/m3], [2]
Settings	278.15 K	288.15 K	298.15 K	308.15 K	318.15 K
x2 = 0.0002901	954.8 ± 0.07	945.61 ± 0.07	936.4 ± 0.08	927.16 ± 0.08	917.88 ± 0.08
x2 = 0.001042	954.84 ± 0.07	945.65 ± 0.07	936.44 ± 0.08	927.2 ± 0.08	917.92 ± 0.08
x2 = 0.001656	954.87 ± 0.07	945.68 ± 0.07	936.47 ± 0.08	927.23 ± 0.08	917.95 ± 0.08
x2 = 0.002777	954.93 ± 0.07	945.74 ± 0.07	936.53 ± 0.08	927.28 ± 0.08	918 ± 0.08
x2 = 0.003783	954.99 ± 0.07	945.8 ± 0.07	936.58 ± 0.08	927.34 ± 0.08	918.05 ± 0.08
x2 = 0.004833	955.05 ± 0.07	945.85 ± 0.07	936.64 ± 0.08	927.39 ± 0.08	918.1 ± 0.08
x2 = 0.005867	955.1 ± 0.07	945.91 ± 0.07	936.69 ± 0.08	927.44 ± 0.08	918.16 ± 0.08
x2 = 0.007593	955.19 ± 0.07	946 ± 0.07	936.78 ± 0.07	927.53 ± 0.08	918.24 ± 0.08
x2 = 0.008945	955.27 ± 0.07	946.07 ± 0.07	936.85 ± 0.07	927.6 ± 0.08	918.31 ± 0.08
x2 = 0.01063	955.36 ± 0.07	946.16 ± 0.07	936.94 ± 0.07	927.69 ± 0.08	918.39 ± 0.08
x2 = 0.01192	955.43 ± 0.07	946.23 ± 0.07	937.01 ± 0.07	927.75 ± 0.08	918.46 ± 0.08

CN(C)C=O [dimethylformamide]
[1]
Settings	mass density [kg/m3]
278.15 K	962.901 ± 0.07
288.15 K	953.398 ± 0.072
298.15 K	943.869 ± 0.074
308.15 K	934.298 ± 0.076
318.15 K	924.683 ± 0.079

CN(C)C=O [dimethylformamide] + O
mass density [kg/m3], [2]
Settings	278.15 K	288.15 K	298.15 K	308.15 K	318.15 K
x2 = 0.0002028	962.91 ± 0.07	953.41 ± 0.07	943.88 ± 0.07	934.31 ± 0.08	924.69 ± 0.08
x2 = 0.0008875	962.94 ± 0.07	953.44 ± 0.07	943.91 ± 0.07	934.34 ± 0.08	924.72 ± 0.08
x2 = 0.001707	962.98 ± 0.07	953.48 ± 0.07	943.95 ± 0.07	934.38 ± 0.08	924.76 ± 0.08
x2 = 0.002654	963.03 ± 0.07	953.53 ± 0.07	944 ± 0.07	934.42 ± 0.08	924.8 ± 0.08
x2 = 0.003456	963.06 ± 0.07	953.57 ± 0.07	944.03 ± 0.07	934.46 ± 0.08	924.84 ± 0.08
x2 = 0.00465	963.12 ± 0.07	953.62 ± 0.07	944.09 ± 0.07	934.52 ± 0.08	924.89 ± 0.08
x2 = 0.006106	963.19 ± 0.07	953.69 ± 0.07	944.16 ± 0.07	934.58 ± 0.08	924.96 ± 0.08
x2 = 0.007804	963.28 ± 0.07	953.77 ± 0.07	944.24 ± 0.07	934.66 ± 0.08	925.04 ± 0.08
x2 = 0.009189	963.34 ± 0.07	953.84 ± 0.07	944.3 ± 0.07	934.73 ± 0.08	925.1 ± 0.08
x2 = 0.01051	963.4 ± 0.07	953.9 ± 0.07	944.37 ± 0.07	934.79 ± 0.08	925.16 ± 0.08
x2 = 0.01182	963.47 ± 0.07	953.97 ± 0.07	944.43 ± 0.07	934.85 ± 0.08	925.22 ± 0.08

[2H]O[2H] [water-d2] + CC(=O)N(C)C
mass density [kg/m3], [2]
Settings	278.15 K	288.15 K	298.15 K	308.15 K	318.15 K
x1 = 0.0002901	954.8 ± 0.07	945.61 ± 0.07	936.4 ± 0.08	927.16 ± 0.08	917.88 ± 0.08
x1 = 0.0009284	954.85 ± 0.07	945.66 ± 0.07	936.45 ± 0.08	927.21 ± 0.08	917.93 ± 0.08
x1 = 0.00199	954.93 ± 0.07	945.74 ± 0.07	936.53 ± 0.08	927.29 ± 0.08	918 ± 0.08
x1 = 0.002684	954.98 ± 0.07	945.79 ± 0.07	936.58 ± 0.08	927.34 ± 0.08	918.05 ± 0.08
x1 = 0.003434	955.05 ± 0.07	945.85 ± 0.07	936.64 ± 0.08	927.39 ± 0.08	918.11 ± 0.08
x1 = 0.004789	955.15 ± 0.07	945.96 ± 0.07	936.74 ± 0.07	927.49 ± 0.08	918.21 ± 0.08
x1 = 0.005915	955.24 ± 0.07	946.05 ± 0.07	936.83 ± 0.07	927.58 ± 0.08	918.28 ± 0.08
x1 = 0.007384	955.36 ± 0.07	946.16 ± 0.07	936.94 ± 0.07	927.69 ± 0.08	918.39 ± 0.08
x1 = 0.008715	955.46 ± 0.07	946.26 ± 0.07	937.04 ± 0.07	927.79 ± 0.08	918.49 ± 0.08
x1 = 0.01024	955.59 ± 0.07	946.38 ± 0.07	937.16 ± 0.07	927.9 ± 0.08	918.6 ± 0.08
x1 = 0.01198	955.72 ± 0.07	946.52 ± 0.07	937.29 ± 0.07	928.03 ± 0.08	918.73 ± 0.08

[2H]O[2H] [water-d2] + CN(C)C=O
mass density [kg/m3], [2]
Settings	278.15 K	288.15 K	298.15 K	308.15 K	318.15 K
x1 = 0.0002028	962.92 ± 0.07	953.41 ± 0.07	943.88 ± 0.07	934.31 ± 0.08	924.7 ± 0.08
x1 = 0.0009641	962.98 ± 0.07	953.47 ± 0.07	943.94 ± 0.07	934.37 ± 0.08	924.75 ± 0.08
x1 = 0.00191	963.05 ± 0.07	953.54 ± 0.07	944.01 ± 0.07	934.44 ± 0.08	924.82 ± 0.08
x1 = 0.002862	963.12 ± 0.07	953.61 ± 0.07	944.08 ± 0.07	934.5 ± 0.08	924.89 ± 0.08
x1 = 0.003812	963.19 ± 0.07	953.68 ± 0.07	944.15 ± 0.07	934.57 ± 0.08	924.96 ± 0.08
x1 = 0.004846	963.27 ± 0.07	953.76 ± 0.07	944.23 ± 0.07	934.65 ± 0.08	925.03 ± 0.08
x1 = 0.005839	963.35 ± 0.07	953.84 ± 0.07	944.3 ± 0.07	934.72 ± 0.08	925.1 ± 0.08
x1 = 0.006984	963.44 ± 0.07	953.92 ± 0.07	944.39 ± 0.07	934.81 ± 0.08	925.19 ± 0.08
x1 = 0.008587	963.56 ± 0.07	954.05 ± 0.07	944.51 ± 0.07	934.93 ± 0.08	925.31 ± 0.08
x1 = 0.01049	963.71 ± 0.07	954.19 ± 0.07	944.65 ± 0.07	935.07 ± 0.08	925.44 ± 0.08
x1 = 0.012	963.83 ± 0.07	954.31 ± 0.07	944.77 ± 0.07	935.18 ± 0.08	925.55 ± 0.08
